Publication PMC12118597 (Science Advances, 2025)
Read-outs that look alike come from different tables or passages of the source.

Target: SARS-CoV-2 NSP3 macrodomain (Mac1) (Severe acute respiratory syndrome coronavirus 2, UniProt P0DTD1)
Assay type: binding
Settings: for 2*(1-BDC) (%): occupancy estimate from PanDDA; for Total number of conformations: ligand conformations modeled in the crystal structure
[1] = PanDDA background density correction, 1-BDC
[2] = ligand-bound crystal structure obtained (TRUE)
[3] = site occupied in X-ray crystal structure
[4] = PanDDA background density correction factor
[5] = crystal soak 10 mM, P43 crystal form
[6] = crystal soak 10 mM, DMSO background map
[7] = refined crystallographic occupancy
[8] = crystal soak concentration 20 mM, P43 crystals
[9] = soak concentration 10 mM, DMSO background map
[10] = soak concentration 10 mM, P43 crystals
[11] = crystal soak 10 mM, TFA/DMSO background map

Structure (SMILES) | X-ray crystal structure [2] | 2*(1-BDC) (%) | Binding site [3] | Occupancy difference (refined_occupancy - 2*(1-BDC)) | 1-BDC [4] | PanDDA run, overall: Hit [5] | PanDDA run, overall: Modeled [5] | PanDDA run, DMSO background map: 1-BDC [6] | PanDDA run, DMSO background map: Hit [6] | Total number of conformations | Refined ligand occupancy (%) [7] [%] | also measured
CC(C)C1CCCN1c1ncnc2[nH]ccc12 (stereo not shown) [AVI-5216] | TRUE | 26 | Adenosine |  |  |  |  |  |  |  |  | 1-BDC [1]: 0.13; Refined ligand occupancy (%) (crystallographic refinement): 40%
O=C(O)C(F)(F)F.OCC1(Nc2ncnc3[nH]ccc23)CC1 [AVI-3688] |  | 40 |  | 20 | 0.2 | TRUE | TRUE | 0.2 | TRUE | 1 | 60 | X-ray crystal structure (TRUE = crystal structure with ligand obtained): TRUE; Binding site (site of ligand in X-ray crystal structure): Adenosine
O=C(Nc1ccsc1C(=O)O)c1ccc2c(c1)OCO2 [AVI-316] |  | 14 |  | 0 | 0.07 |  |  |  |  | 1 | 14 | X-ray crystal structure (TRUE = ligand-bound crystal structure obtained (PDB code given)): TRUE; Hit (PanDDA run, DMSO background map) (crystal soak concentration 20 mM, DMSO background map): TRUE; 1-BDC (PanDDA run, DMSO background map) (crystal soak concentration 20 mM, DMSO background map, event 1): 0.12; Hit (PanDDA run, overall) [8]: TRUE; Modeling comment (PanDDA run, overall) [8]: Duplicate, not modeled; Binding site (site of Mac1 occupied in the X-ray crystal structure (Adenosine or Distal)): Adenosine; PanDDA run, DMSO background map: 1-BDC [9]: 0.07; PanDDA run, DMSO background map: Hit [9]: TRUE; PanDDA run, DMSO background map: Modeled [9]: TRUE; PanDDA run, overall: Hit [10]: TRUE; PanDDA run, overall: Modeled [10]: TRUE
OC1CCN(c2ncnc3[nH]ccc23)C1 (stereo not shown) [AVI-3661] | TRUE | 30 | Adenosine |  |  | TRUE | TRUE | 0.15 | TRUE |  |  | 1-BDC [1]: 0.15; Refined ligand occupancy (%) (crystallographic refinement): 40%
CO[C@@H]1C[C@H](CO)N(c2ncnc3[nH]ccc23)C1 [AVI-3656] | TRUE | 52 | Adenosine | 0 | 0.26 | TRUE | TRUE | 0.26 | TRUE | 1 | 52 | 
OCC1CC2(CCOCC2)CN1c1ncnc2[nH]ccc12 (stereo not shown) [AVI-3707] | TRUE | 42 | Adenosine | 0 | 0.21 | TRUE |  | 0.21 | TRUE | 1 | 42 | PanDDA run, overall: Modeling comment (crystal soak 10 mM): Distal site, weak density, not modeled
OC(c1ccccc1)C1CCCN1c1ncnc2[nH]ccc12 (stereo not shown) [AVI-3652] | TRUE | 44 | Adenosine | 0 | 0.22 | TRUE | TRUE | 0.22 | TRUE | 1 | 44 | 
O=C(O)C(F)(F)F.OCC1C2C=CC(C2)N1c1ncnc2[nH]ccc12 (stereo not shown) [AVI-3712] |  |  |  |  |  | TRUE |  | 0.15 | TRUE |  |  | PanDDA run, overall: Modeling comment (crystal soak 10 mM): Weak density, not modeled; PanDDA run, TFA/DMSO background map: 1-BDC [11]: 0.05; PanDDA run, TFA/DMSO background map: Hit [11]: TRUE
CC(C)(C)C1CCC(CO)N(c2ncnc3[nH]ccc23)C1 (stereo not shown) [AVI-3719] | TRUE | 16 | Adenosine | 0 | 0.08 | TRUE |  | 0.08 | TRUE | 1 | 16 | Phe132 loop open state: TRUE
